Measurements published in a melting point compilation (Tetko et al.; mined from patent text by program, amines drawn as free bases though some values may be those of a salt).

Row | SMILES | melting point [°C]
1 | CCOC(=O)c1ccc2cc(OC(=S)N(C)C)ccc2c1 | 128 to 130
2 | CCCCCCCCCCCCc1nnn(C(C(=O)O)c2ccccc2)n1 (stereo unspecified) | 76 to 78
3 | CCOC(=O)C1=Cc2cc(C=NO)ccc2OC1C(F)(F)F (stereo unspecified) | 113 to 116
4 | CN1CC(c2cc3ccccc3o2)CC1=O (stereo unspecified) | 73
5 | CSc1ccc(-c2coc3ccc(-c4nnc(C)o4)cc23)c(Cl)c1 | 153 to 154
6 | CC(=O)Nc1cc(C)c(O)cc1C | 183
7 | CCCCc1cn(CCCC)c(=O)n1Cc1ccc(-c2cnccc2-c2nnn[nH]2)cc1 | 128 to 130
8 | N=C(NS(=O)(=O)C=Cc1ccc([N+](=O)[O-])cc1)c1ccc([N+](=O)[O-])cc1 | 173 to 177
9 | COC(=O)c1cc(-c2cccc(C3=NC(C)(C)Cc4cc(OC)c5c(c43)CC(C)(C)O5)c2)ccc1NC(C)=O | 116 to 119
10 | CC(C)(C)c1c(-c2ccc(S(C)(=O)=O)cc2)cnn(-c2ccc(F)c(F)c2)c1=O | 158 to 161
11 | CCCC1=C(C(=O)OCC)C(c2ccccc2S(C)=O)c2c[nH]nc2N1 (stereo unspecified) | 216
12 | FCCCCNc1cn(-c2cccnc2)nc1Cl | 82 to 83
13 | O=C(CCCCl)Nc1ccccc1 | 64 to 66
14 | Clc1cc2nc(Cl)n(Cc3ccccc3)c2cc1Cl | 175 to 176
15 | O=C(O)c1cc(OCC(F)(F)F)ccc1OCC(F)(F)F | 99 to 101
16 | CC1(C)CCC(C)(C)c2cc(-c3cc(-c4ccc(C(=O)O)cc4)ccc3OCCCCCCO)ccc21 | 200 to 201
17 | Cc1cn(-c2nccc3[nH]c(=O)ccc23)cn1 | 257 to 259
18 | CCCCNC(=O)ONC(=O)Cc1ccc2c(C(=O)OCC)c(N)c(C(=O)OCC)c-2cc1 | 178 to 179
19 | CN(c1ccc(Cl)cc1)C1CCN(C2CCN(c3ccc(OC[C@@]4(C)Cn5cc([N+](=O)[O-])nc5O4)cc3)CC2)CC1 | 231 to 232
20 | COCCN1CCc2sc(Nc3ncc(F)c(C)n3)nc2-c2c[nH]nc21 | 261 to 263
21 | CC(C)(O)C#Cc1ccc2[nH]ccc2c1 | 119 to 123
22 | COc1ccc(/C=C(\C)C(=O)O)cc1 | 178 to 182
23 | CC(C)CCSC1=C(O)CC(C)(C)CC1=O | 59 to 61
24 | COc1cc(O)c(C#N)c2cc(-c3ccc(O)cc3)oc12 | 286 to 288
25 | COc1ccc(NN=C(Sc2ccccc2)C(C)=O)cc1 | 120 to 123
26 | Fc1ccc(N2CCN(CCCN(c3ccccc3)c3ccccc3)CC2)cc1 | 87 to 88

Row | SMILES | melting point [°C]
27 | Cc1cc(C)cc(-n2ncc(-c3ccc(S(C)(=O)=O)cc3)c(-c3ccc(F)cc3)c2=O)c1 | 130 to 134
28 | Cc1c[nH]c2c([N+](=O)[O-])cccc2c1=O | 235 to 243
29 | Clc1csc2c(Cl)cccc12 | 100 to 102
30 | CCCCCCCCCCCCCCCCN(CCCC)CCCCCCO | 58 to 59
31 | CCn1cc(C(=O)O)c(=O)c2cc(F)c(N3CCN(S(=O)(=O)c4ccc(F)cc4)CC3)c(F)c21 | 243 to 244
32 | CN(C)c1ncc(-c2nc3cccc(CO)c3o2)cn1 | 212 to 215
33 | NS(=O)(=O)c1ccc(-c2cccc(-c3nc(-c4ccc(Cl)s4)cc(C(F)(F)F)n3)c2)s1 | 233
34 | C1COCCOCCOCCNCCOCCOCCOCCN1 | 15
35 | CCc1ccc(C(Cl)=NOS(C)(=O)=O)cc1 | 50 to 52
36 | COCOC1=C(C(=O)OC)CC(C#N)(c2ccc(OC)c(OCC3CC3)c2)CC1 (stereo unspecified) | 98 to 99
37 | CCN1c2ncccc2C(=O)N(C)c2ccc(-c3c[nH]nc3C)nc21 | 113 to 115
38 | COC(=O)CC(=O)Nc1cccc(COc2ccc(C(C)=O)c(OC)c2)c1 | 93.5 to 96.5
39 | OC(CCCCCCCCCCOCc1ccccc1)c1ccc(OCc2ccccc2)c(OCc2ccccc2)c1 (stereo unspecified) | 50 to 52
40 | CCCCN(Cc1ccc(-c2ccccc2-c2nnn[nH]2)cc1)c1ncc(C(=O)OCC)s1 | 65 to 70
41 | CC1(c2ccc(F)cc2)Cc2cc(OCC(=O)O)c(Cl)c(Cl)c2C1=O (stereo unspecified) | 150 to 156
42 | CCCC(=O)c1cc(-c2ccc(C)cc2)no1 | 86 to 87
43 | N#Cc1c(-c2ccc(Cl)c(Cl)c2)[nH]c(I)c1I | > 230
44 | Cc1[nH]c(=O)n(-c2cc(OC(C)C)c(Cl)cc2F)c(=O)c1F | 162 to 164
45 | COc1ccc(/C=C/c2nc3c([nH]2)c(=O)n(C)c(=O)n3C)cc1Br | > 280
46 | CSc1ncc(Cc2ccncc2)c(=O)[nH]1 | 179 to 182
47 | CCN(CC)c1ccc(CN2CCC(NC(=O)Nc3ccccc3CCc3cc(C(C)(C)C)c(O)c(C(C)(C)C)c3)CC2)cc1 | 138 to 141
48 | O=[N+]([O-])c1ccc(Oc2ccc(Oc3ccc([N+](=O)[O-])c(O)c3)cc2)cc1O | 242 to 245
49 | CC(C)NS(=O)(=O)c1cccc(F)c1C#N | 184 to 189
50 | CCOC(=O)C(=O)Nc1cc(C)nc(N2CCc3ccccc3C2)c1 | 128 to 129
51 | CNc1ccc(N)cc1C(=O)n1nc(O)c2ccccc21 | 184 to 186
52 | CN1CCC(=C(c2ccc(F)cc2)c2cccnc2)CC1 | 93.1

Row | SMILES | melting point [°C]
53 | O=C1NCCN1CC#CCn1ccnc1 | 97 to 101
54 | COc1cc(CON=C(CCC(=O)O)c2ccccc2)cc(OC)c1OCc1nc(-c2ccccc2)oc1C | 89 to 90
55 | CSc1cc(C)nc(SC)c1NC(=O)CCCCSc1nc2ccccc2s1 | 121 to 123
56 | O=C(O)c1ccc2c(Br)n[nH]c2c1 | > 250
57 | Nc1cccc(C=Cc2ccc3ccccc3n2)c1 | 158 to 160
58 | CC(C)c1cc2cc(OCC(=O)O)c(Cl)c(Cl)c2s1 | 168 to 170
59 | C=CCOc1cc(-c2cc(=O)c3c(OC)cc(OCC4=COC(C)(C)O4)cc3o2)ccc1OC | 156
60 | O=C(NC1CCN(CCc2ccc3ccccc3c2)CC1)c1ccccc1 | 189 to 191
61 | CC(C)c1c2n(c(=O)c3ccccc13)CCCS2 | 123 to 124
62 | COC(=O)C(NC(=O)OC(C)(C)C)c1ccc(CC(=O)O)cc1 (stereo unspecified) | 123 to 124
63 | CC1(C)CCC(C)(C)N1CC(O)COc1cc2ccccc2c(=O)c2ccsc12 (stereo unspecified) | 104 to 107
64 | CCOC(=O)C1=C(N)NC(C)=CC1c1ccccc1Cl (stereo unspecified) | 171
65 | CN(CCCNC(=O)NCCCCOc1cccc(CN2CCCCC2)c1)CCN(Cc1ccc(F)cc1)c1ccccn1 | 115
66 | CC(=O)c1ccc2c(c1)SC(C)(C)S2 | 75 to 76
67 | COC(=O)C1CN(C(=O)C2=Cc3cc(OC)c(OC)cc3CCC2)CCN1 (stereo unspecified) | 103 to 104
68 | Cc1c(C(=O)NCC(N)=O)cccc1-c1cccc2cc(Cc3cccc(C(F)(F)F)c3)sc12 | 124 to 125
69 | CCOc1nn(-c2ccc(C(F)(F)F)cn2)cc1CCOc1ccc(CCC(=O)O)c(OC)c1 | 147 to 148
70 | COCCOCn1cc(C(=O)NCc2ccc(Cl)cc2)c(=O)c2cc(CN3CCOCC3)ccc21 | 150 to 152
71 | C[Si](C)(C)C#Cc1cnc(C(F)(F)F)nc1 | 75.5 to 76
72 | CCC(=O)NCC[C@@H]1CCc2cc(Br)c(O)c(CCO)c21 | 85 to 87
73 | O=[N+]([O-])c1cc(I)ccc1Nc1cccc(-c2ccccn2)c1 | 195 to 196
74 | N#Cc1cc(Br)ccc1CBr | 81
75 | CN(C)CCCOc1ccccc1C=NCC(N)=O | 71 to 73
76 | O=C(O)c1ccc2c(c1)S(=O)(=O)c1ccccc1NC2 | 304 to 306
77 | CCOC(=O)C1=C[C@H](O)[C@H](NC(C)=O)[C@@H](N=[N+]=[N-])C1 | 51 to 53
78 | N#CCc1cc(Cl)cc2c(-c3ccc(Cl)cc3)onc12 | 187 to 190

Row | SMILES | melting point [°C]
79 | COc1ccc(-c2cnc(N3Cc4c([nH]c5ccccc5c4=O)C3c3ccc4c(c3)OCO4)nc2)cc1 (stereo unspecified) | 325 to 327
80 | NC(=O)c1ccc(Cc2ccccc2)cn1 | 193 to 196
81 | CC(=O)c1cccc2c1ncn2-c1cccc([N+](=O)[O-])c1 | 175 to 177
82 | Cc1ccc(Cc2cnc(NCCSCc3cccc(CN(C)C)c3)[nH]c2=O)cn1 | 122 to 125
83 | CC(=O)N1CCc2ccc(C(=O)CCCC3CCN(Cc4ccccc4Cl)CC3)cc2CC1 | 99 to 100
84 | O=c1[nH]c2ccccc2n1CCCN1CCC(C(O)(c2ccc(F)cc2)c2ccc(F)cc2)CC1 | 141 to 143
85 | CC(=O)N(O)C(C)c1cc2ccccc2o1 (stereo unspecified) | 130 to 132
86 | CCNC(=O)Oc1ccc(-c2nn(C3CCCC3)c3c(F)cccc23)cc1 | 159 to 160
87 | O=C(O)C1Cc2ccccc2CN1C(=O)c1ccc(F)c(F)c1 (stereo unspecified) | 89 to 91
88 | COc1ccc(C2=NN(Cc3ccc(O)cc3)C(=O)[C@H]3CCCC[C@@H]23)cc1OC (relative stereo) | 177 to 179
89 | COc1ccc(-c2cc3ccccc3[nH]2)c(O)c1 | 195
90 | COc1ccc2[nH]c(SCc3ncc(C)c(N4CCOCC4)c3Cl)nc2c1 | 162 to 164
91 | COc1cc(OC)nc(Oc2ccc3[nH]c(C)cc3c2C(=O)OCc2ccccc2)n1 | 135 to 139
92 | Cc1nn(-c2ccccn2)c2ncc(C(=O)c3ccccc3)c(O)c12 | 224 to 226
93 | CCC(O)(CC)c1ccc(-c2cccc(OCc3ccc(CO)c(CO)c3)c2C)cc1 | 117 to 118
94 | O=C(Nc1ccc2cn[nH]c2c1)C(=O)N1CCC(Cc2ccccc2)CC1 | 160 to 164
95 | COC(OC)C(CC#N)C(C)(C)S(=O)(=O)c1ccc(C)cc1 (stereo unspecified) | 99
96 | CC(C)c1ccc(C2COc3ccc(NC(=O)CC(C)(C)C)cc32)cc1 (stereo unspecified) | 119 to 120
97 | CS(=O)(=O)c1ccc(-c2cnn(CC(F)(F)F)c(=O)c2NC2CCc3ccccc32)cc1 (stereo unspecified) | 155 to 158
98 | O=C(O)c1ccccc1COc1ccc(CCCO)cc1 | 139 to 140
99 | N#CCc1ccc(NC(=O)C=C2CC(C(=O)O)Nc3cc(Cl)cc(Cl)c32)cc1 (racemic) | 200 to 202
100 | Cc1ccc(OCCCCCOc2ccc3ccc(=O)oc3c2)cn1 | 101 to 102
101 | COCc1cc(-c2ncn(-c3cccc(Oc4ccccc4)c3)c2C)on1 | 83
